Measurements from patent publication US20210181215A1, “TREATMENT AND DIAGNOSIS OF ANAEMIA” (THE UNIVERSITY COURT OF THE UNIVERSITY OF ABERDEEN, priority 2017, published 2021).
“Also recorded” adds a separate entry of the source.

Experiments:
[1] = tested on: oxidised RBC uptake by HMDM; assay: Efferocytosis assay: uptake of oxidised RBC by human monocyte derived macrophages; type: cell-based; conditions: RBC oxidised with CuSO4/ascorbic acid, 3 h assay, mannan 10 mg/ml, chitin 50 μg/ml, laminarin 10 μg/ml, anti-CD206 clone 15.2 10 μg/ml applied 60 min before, siRNA against MRC-1
Experimental: RBC and SHSy5y neuronal cells were incubated with copper sulphate (CuSO4, 0.2 mM) and ascorbic acid (5 mM) for 60 minutes (RBC) or 30 minutes (SHSy5y) at 37° C. in DMEM with 4.5 g/L glucose. Cells were then washed in PBS three times prior to assays.
(§1) For clear identification of efferocytosis by microscopy, RBC were stained with cell trace far red (CTFR; Molecular Probes) according to manufacturer's instructions. RBC were added to HMDM at 5×10^7 cells per well for three hours before gentle removal and fixation with 4% paraformaldehyde. To identify cells bound but not and ingested by HMDM the cells were stained with anti-glycophorin A/B FITC (HIR2, Biolegend).
(§2) Ligand binding of CD206 was blocked with antibody clone 15.2 (10 μg/ml; BioLegend) by adding antibody or isotype control (10 μg/ml mouse IgG1 kappa clone 107.3, BD Biosciences) for 60 minutes prior to three hour efferocytosis assay and were not removed.
(§3) Mannan (10 mg/ml), chitin (50 μg/ml) and laminarin (10 μg/ml; all Sigma Aldrich) were applied for 60 minutes prior to three hour efferocytosis/phagocytosis assay and were not removed.
(§4) Cells were imaged at 32 times magnification using Immuno-Fluorescent Microscope (Zeiss).
To access percentage MR positive spindle/small round macrophages, anti-MR antibody (unlabelled clone 19.2) was stained with anti-mouse PE secondary antibody. Only spindle/small round macrophage population was examined as this is the subpopulation that expresses MR in wild type macrophages. SiRNA ([…], antisense, concentration Life Technologies) against mannose receptor (MRC-1) in humans was transfected into primary macrophages (RNAiMax, Life Technologies). (n=4 donors for all SiRNA experiments. Autologous red blood cells were used with macrophages.) Mannose receptor expression was established by microscopy using MR-Alexa-488 staining (described above) in the small non-granular macrophage sub-population by merging bright field and mannose receptor fluorescence staining.

[2] = tested on: uptake of RBC from patients with SCD (HbSS) by HMDM; assay: Efferocytosis assay: uptake of RBC from patients with SCD by HMDM; type: cell-based, human; conditions: 3 h assay, mannan 10 mg/ml, chitin 50 μg/ml, anti-CD206 10 μg/ml
Experimental: as §1, §2, §3, §4

[3] = tested on: untreated RBC uptake by HMDM; assay: Efferocytosis assay: uptake of untreated RBC by HMDM; type: cell-based, human; conditions: 3 h assay
Experimental: as §1, §3, §4

[4] = tested on: phagocytosis of beads by HMDM; assay: Bead phagocytosis assay with HMDM (control); type: cell-based, human; conditions: 3 h
Experimental: Coumarin stained Fluoresbrite microparticles (8 μm; Polysciences, Inc.) were added to HMDM at 5×107 beads per well for three hours before gentle removal and suspension in PBS for immediate imaging.
as §2, §3, §4

[5] = target: T1, Galanthus nivalis lectin (GNA) (Galanthus nivalis, UniProt P30617); assay: Flow cytometry blockade of GNA lectin binding to the RBC surface; conditions: oxidised / SCD RBC; lectin pre-incubated with mannan 5 mg/ml for 15 min
T1 construct: purchased Vector Laboratories B1245
T1 sequence (P30617 24-128 limits assumed): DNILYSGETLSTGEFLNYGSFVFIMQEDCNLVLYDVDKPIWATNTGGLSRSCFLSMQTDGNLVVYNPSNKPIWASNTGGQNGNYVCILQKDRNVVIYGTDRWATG
Experimental: RBC, approximately 5×10^6 per test, were washed three times in PBS, and then incubated in calcium buffer with biotinylated GNA (4 μg/ml, Vector Laboratories, B1245) or in PBS for PNA-FITC (2 μg/ml Sigma Aldrich L7381) for 30 minutes in calcium buffer at room temperature (protected from light). Cells were then washed and incubated with streptavidin PE-Cy7 (0.27 μg/ml; eBioscience) or PE (0.67 μg/ml; BD Pharmingen) for 30 min at room temperature. Cells were washed and analysed.
(§5) For blockade testing, Lectin or FC fusion were pre-incubated with mannan (5 mg/ml, unless otherwise stated) for 15 minutes at room temperature. Mixture of mannan and Lectin or FC fusion was then incubated with washed RBC and compared to binding of Lectin or FC fusion without mannan.
(§6) Samples were acquired on FACSCalibur (BD) and analysed using FlowJo v10.0 (Treestar) software. The normalised geomean was calculated by subtracting the geomean of the secondary only paired controls. For PNA-FITC analysis, normalised geomean was calculated by subtracting geomean of unstained RBC (PBS incubation) control.

[6] = tested on: carbohydrate binding domain of the mannose receptor CD206 (MR-CRD); assay: Flow cytometry blockade of MR-CRD (CD206 carbohydrate binding domain, Fc fusion) staining of oxidised RBC; set-up: species or system murine; conditions: FC fusion pre-incubated with mannan 5 mg/ml
Experimental: Humanised FC fusions of murine C-type lectins (5 μg/ml, kind gift from Gordon Brown, Screening for Ligands of C-Type Lectin-Like Receptors, Elwira PyżGordon D. Brown, 2011) were incubated with RBC for 30 minutes at room temperature in calcium buffer then detected by Alexa Fluor 647 goat anti-human secondary antibody (2 μg/ml, 109-605-098, Jackson ImmunoResearch Laboratories) incubated for 30 minutes at room temperature.
as §5, §6

Chain of carbohydrate binding domain of the mannose receptor CD206 (MR-CRD) (Q61830 645-781 limits assumed): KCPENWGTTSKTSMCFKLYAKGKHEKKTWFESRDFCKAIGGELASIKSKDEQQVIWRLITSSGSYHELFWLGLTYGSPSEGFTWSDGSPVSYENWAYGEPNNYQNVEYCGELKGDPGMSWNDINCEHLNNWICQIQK

Substance | uptake (efferocytosis) of oxidised RBC by HMDM [1] | uptake (efferocytosis) of oxidised RBC by HMDM ([1]; listed as Mannan) | uptake of RBC from patients with SCD by HMDM [2] | uptake of untreated RBC by HMDM [3] | phagocytosis of control beads by HMDM [4] | blockade of GNA binding to RBC surface (FACS) [5] | blockade of MR-CRD staining of oxidised RBC (FACS) [6]
mannan | significantly inhibited; also recorded: abrogated | significantly blocked uptake | significantly inhibited; also recorded: blocked | not untreated | no effect | effective blockade; also recorded: inhibitable | effective blockade
laminarin | not laminarin, significantly inhibited | – | – | – | – | – | –
chitin | significantly inhibited; also recorded: abrogated | – | significantly inhibited; also recorded: blocked | not untreated | – | inhibitable | –
